Measured values reported in patent US9598457B2, “Substituted nucleosides, nucleotides and analogs thereof” (Alios BioPharma, Inc., priority 2012, dated 2017).

Test system: mitochondrial protein synthesis (COX I relative to SDH A) in HepG2 cells
Assay: not given
Conditions: not given

Question: How did the “inhibition of mitochondrial protein synthesis (FIGS. 11A-B)” value turn out when `Cc1cn([C@H]2C=C[C@@H](CO)O2)c(=O)[nH]c1=O` [d4T] was run?
Answer: found not to inhibit mitochondrial protein synthesis

Question: Which “inhibition of mitochondrial protein synthesis (FIGS. 11A-B)” value does the source give for `Nc1ccn([C@H]2CC[C@@H](CO)O2)c(=O)n1` [ddC] here?
Answer: strongly inhibit mitochondrial protein synthesis

Test system: Huh-7 cells containing the self-replicating, subgenomic HCV replicon
Assay: HCV replicon assay (luciferase reporter)
Format: cell-based
Conditions: Hepatitis C virus, Huh-7, 72 h

Question: `CCOc1nc(N)nc2c1ncn2[C@@H]1O[C@H](COP(=O)(N[C@@H](C)C(=O)OCC(C)(C)C)Oc2ccccc2Cl)[C@@H](F)[C@@]1(C)O` (stereo partly drawn) [Compound 2, (2S)-neopentyl 2-(((((2R,3R,4S,5R)-5-(2-amino-6-ethoxy-1H-purin-9(6H)-yl)-3-fluoro-4-hydroxy-4-methyltetrahydrofuran-2-yl)methoxy)(2-chlorophenoxy)phosphoryl)amino)propanoate] was tested. Which EC50 did it give?
Answer: < 1 µM

Question: How did the EC50 turn out when `CCOc1nc(N)nc2c1ncn2[C@@H]1O[C@H](COP(=O)(N[C@@H](C)C(=O)OC2CCCCC2)Oc2ccc(F)c(Cl)c2)[C@@H](F)[C@@]1(C)O` (stereo partly drawn) [Compound 3, (2S)-cyclohexyl 2-(((((2R,3R,4S,5R)-5-(2-amino-6-ethoxy-1H-purin-9(6H)-yl)-3-fluoro-4-hydroxy-4-methyltetrahydrofuran-2-yl)methoxy)(3-chloro-4-fluorophenoxy)phosphoryl)amino)propanoate] was run?
Answer: < 1 µM

Question: Which EC50 does the source give for `CCOc1nc(N)nc2c1ncn2[C@@H]1O[C@H](COP(=O)(N[C@@H](C)C(=O)OCC(C)(C)C)Oc2ccccc2)[C@@H](F)[C@@]1(C)O` (stereo partly drawn) [Compound 4, (2S)-neopentyl 2-(((((2R,3R,4S,5R)-5-(2-amino-6-ethoxy-1H-purin-9(6H)-yl)-3-fluoro-4-hydroxy-4-methyltetrahydrofuran-2-yl)methoxy)(phenoxy)phosphoryl)amino)propanoate] here?
Answer: < 1 µM

Question: With `CCOc1nc(N)nc2c1ncn2[C@@H]1O[C@H](COP(=O)(N[C@@H](C)C(=O)OC2CCCCC2)Oc2ccccc2)[C@@H](F)[C@@]1(C)O` (stereo partly drawn) [Compound 5, (2S)-cyclohexyl 2-(((((2R,3R,4S,5R)-5-(2-amino-6-ethoxy-1H-purin-9(6H)-yl)-3-fluoro-4-hydroxy-4-methyltetrahydrofuran-2-yl)methoxy)(phenoxy)phosphoryl)amino)propanoate] as the compound, how does the EC50 read?
Answer: < 1 µM

Question: Which EC50 does the source give for `C[C@H](NP(=O)(OC[C@H]1O[C@@H](n2cnc3c(=O)[nH]c(N)nc32)[C@](C)(O)[C@@H]1F)Oc1ccccc1Cl)C(=O)OCC(C)(C)C` (stereo partly drawn) [Compound 7, (2S)-neopentyl 2-(((((2R,3R,4S,5R)-5-(2-amino-6-oxo-1H-purin-9(6H)-yl)-3-fluoro-4-hydroxy-4-methyltetrahydrofuran-2-yl)methoxy)(2-chlorophenoxy)phosphoryl)amino)propanoate] here?
Answer: 10 to 100 µM

Question: `C[C@H](NP(=O)(OC[C@H]1O[C@@H](n2cnc3c(=O)[nH]c(N)nc32)[C@](C)(O)[C@@H]1F)Oc1ccc(F)c(Cl)c1)C(=O)OC1CCCCC1` (stereo partly drawn) [Compound 8, (2S)-cyclohexyl 2-(((((2R,3R,4S,5R)-5-(2-amino-6-oxo-1H-purin-9(6H)-yl)-3-fluoro-4-hydroxy-4-methyltetrahydrofuran-2-yl)methoxy)(3-chloro-4-fluorophenoxy)phosphoryl)amino)propanoate] was tested. Which EC50 did it give?
Answer: 10 to 100 µM

Question: For `C[C@H](NP(=O)(OC[C@H]1O[C@@H](n2cnc3c(=O)[nH]c(N)nc32)[C@](C)(O)[C@@H]1F)Oc1ccccc1)C(=O)OC1CCCCC1` (stereo partly drawn) [Compound 9, (2S)-cyclohexyl 2-(((((2R,3R,4S,5R)-5-(2-amino-6-oxo-1H-purin-9(6H)-yl)-3-fluoro-4-hydroxy-4-methyltetrahydrofuran-2-yl)methoxy)(phenoxy)phosphoryl)amino)propanoate], which EC50 is on record?
Answer: 1 to 10 µM

Question: How did the EC50 turn out when `CCOc1nc(N)nc2c1ncn2[C@@H]1O[C@H](COP(=O)(N[C@@H](C)C(=O)OC(C)C)Oc2ccccc2)[C@@H](F)[C@@]1(C)O` (stereo partly shown) [Compound 10] was run?
Answer: < 1 µM

Question: `CCOc1nc(N)nc2c1ncn2[C@@H]1O[C@H](COP(=S)(N[C@@H](C)C(=O)OC(C)C)Oc2ccccc2)[C@@H](F)[C@@]1(C)O` (stereo partly shown) [Compound 11] was tested. Which EC50 did it give?
Answer: 10 to 100 µM

Question: `CCOc1nc(N)nc2c1ncn2[C@@H]1O[C@H](COP(=S)(N[C@@H](C)C(=O)OC2CCCCC2)Oc2ccccc2)[C@@H](F)[C@@]1(C)O` (stereo partly shown) [Compound 12] was tested. Which EC50 did it give?
Answer: 1 to 10 µM

Question: For `CCOc1nc(N)nc2c1ncn2[C@@H]1O[C@H](COP(=S)(N[C@@H](C)C(=O)OCC(C)(C)C)Oc2ccccc2)[C@@H](F)[C@@]1(C)O` (stereo partly shown) [Compound 13], which EC50 is on record?
Answer: 1 to 10 µM

Same assay, conditions: Hepatitis C virus, Huh-7; HCV replicon cells, 72 h, Bright-Glo luciferase; read-out: EC50

Question: `C[C@@]1(O)[C@H](F)[C@@H](CO)O[C@H]1n1cnc2c(=O)[nH]c(N)nc21` [Compound 6, 2-amino-9-((2R,3S,4R,5R)-4-fluoro-3-hydroxy-5-(hydroxymethyl)-3-methyltetrahydrofuran-2-yl)-1H-purin-6(9H)-one] was tested. Which EC50 did it give?
Answer: 10 to 100 µM

Target: NS5B570-Con1 (Delta-21) (Hepatitis C virus genotype 1b, UniProt Q9WMX2)
Assay: biochemical
Parameters: species or system HCV Con-1 strain
Conditions: not given

Question: For `C[C@@]1(O)[C@H](F)[C@@H](COP(=O)(O)OP(=O)(O)OP(=O)(O)O)O[C@H]1n1cnc2c(=O)[nH]c(N)nc21` [Compound 15], which IC50 is on record?
Answer: < 1 µM

Target: human mitochondrial RNA polymerase (Homo sapiens, UniProt O00411)
Sequence (O00411 42-1230): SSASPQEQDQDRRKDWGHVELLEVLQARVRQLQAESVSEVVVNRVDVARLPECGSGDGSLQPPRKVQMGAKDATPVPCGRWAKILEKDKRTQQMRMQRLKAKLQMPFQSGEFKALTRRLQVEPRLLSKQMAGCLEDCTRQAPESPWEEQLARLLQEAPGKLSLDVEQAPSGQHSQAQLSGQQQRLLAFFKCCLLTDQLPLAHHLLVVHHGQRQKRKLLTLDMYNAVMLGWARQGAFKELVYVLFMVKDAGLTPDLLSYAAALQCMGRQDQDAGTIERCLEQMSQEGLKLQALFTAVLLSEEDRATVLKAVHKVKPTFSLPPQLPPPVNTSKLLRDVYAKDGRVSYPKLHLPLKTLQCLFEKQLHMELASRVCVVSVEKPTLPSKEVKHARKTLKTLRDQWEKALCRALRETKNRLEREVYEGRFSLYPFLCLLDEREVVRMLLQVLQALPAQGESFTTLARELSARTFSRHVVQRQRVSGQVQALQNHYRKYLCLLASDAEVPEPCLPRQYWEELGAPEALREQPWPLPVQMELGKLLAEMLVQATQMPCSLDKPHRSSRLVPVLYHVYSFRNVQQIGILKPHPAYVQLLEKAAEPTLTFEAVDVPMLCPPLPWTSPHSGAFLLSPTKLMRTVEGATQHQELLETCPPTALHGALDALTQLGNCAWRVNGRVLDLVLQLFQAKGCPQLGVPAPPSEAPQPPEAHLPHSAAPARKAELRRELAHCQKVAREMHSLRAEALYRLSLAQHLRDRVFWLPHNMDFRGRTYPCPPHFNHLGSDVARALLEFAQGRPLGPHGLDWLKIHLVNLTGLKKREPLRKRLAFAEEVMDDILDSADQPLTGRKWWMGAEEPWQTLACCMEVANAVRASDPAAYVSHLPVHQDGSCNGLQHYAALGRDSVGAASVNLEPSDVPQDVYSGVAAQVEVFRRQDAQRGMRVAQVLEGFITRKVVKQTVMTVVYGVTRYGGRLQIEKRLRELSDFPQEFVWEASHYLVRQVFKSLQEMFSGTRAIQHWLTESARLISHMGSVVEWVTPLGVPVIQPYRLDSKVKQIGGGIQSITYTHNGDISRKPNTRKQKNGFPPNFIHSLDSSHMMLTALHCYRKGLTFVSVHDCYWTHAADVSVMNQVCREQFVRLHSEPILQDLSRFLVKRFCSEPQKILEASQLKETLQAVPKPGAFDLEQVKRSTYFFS
Assay: DdRp assay: incorporation of nucleotides by human mitochondrial RNA polymerase (HMRP)
Conditions: 100 μM of each NTP, single turnover, 30° C., 1 minute; template for GTP analogs

Question: Which “incorporation by human mitochondrial RNA polymerase (product band, FIG. 10)” value does the source give for `Nc1ncnc2c1ncn2[C@@H]1O[C@H](COP(=O)(O)OP(=O)(O)OP(=O)(O)O)[C@@H](O)[C@H]1O` [ATP] here?
Answer: poor substrate for incorporation
